In PubChem BioAssay (NCI):
Where “and” joins values, the source holds several entries; their conditions need not be identical. Equal values may be shown once.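 Cultured in 96-well plates, cells were exposed to test compound for 48 hours across five concentrations. GI50: concentration for 50% inhibition of growth. TGI denotes the concentration required for complete inhibition of growth.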

Assays:
Experiment in all cases: DTP human tumour cell line panel, 48 h
DMS 114 small cell lung = system: DMS 114 small cell lung
TK-10 renal = system: TK-10 renal
HCT-116 colon = system: HCT-116 colon
HOP-92 NSCLC = system: HOP-92 NSCLC
SK-MEL-2 melanoma = system: SK-MEL-2 melanoma
COLO 205 colon = system: COLO 205 colon
DLD-1 colon = system: DLD-1 colon
U251 CNS = system: U251 CNS
MDA-MB-231 breast = system: MDA-MB-231 breast

Row | SMILES | TGI (DMS 114 small cell lung) | TGI (TK-10 renal) | TGI (HCT-116 colon) | TGI (HOP-92 NSCLC) | TGI (SK-MEL-2 melanoma) | TGI (COLO 205 colon) | TGI (DLD-1 colon) | TGI (U251 CNS) | GI50 (DMS 114 small cell lung) | GI50 (HCT-116 colon) | GI50 (HOP-92 NSCLC) | GI50 (SK-MEL-2 melanoma) | GI50 (DLD-1 colon) | GI50 (U251 CNS) | GI50 (TK-10 renal) | TGI (MDA-MB-231 breast) | GI50 (COLO 205 colon)
1 | O=C(CC(=O)N1N=C(c2ccccc2)C(N=Nc2ccc(C(=O)O)cc2)C1=O)Nc1ccc(F)cc1 (centres undefined) | > 100 µM | > 100 µM | 28.8 µM | > 100 µM | 41.8 µM | > 100 µM | > 100 µM | – | – | – | – | – | – | – | – | – | –
2 | Cn1c2c([N+](=O)[O-])[se]nc2c(=O)n1-c1ccc([N+](=O)[O-])cc1 | 0.575 µM | 16.2 µM | 3.39 µM | 3.37 µM | 11.2 µM | 4.23 µM | 2.69 µM | 7.04 µM | – | – | – | – | – | – | – | – | –
3 | OCC(O)C(O)c1nn(-c2ccccc2)c2nc3cc(Cl)c(Cl)cc3nc12 (centres undefined) | 71.4 µM | 48.4 µM | 54.4 µM | 82.1 µM | 74.1 µM | 86.4 µM | > 100 µM | > 100 µM | – | – | – | – | – | – | – | – | –
4 | COC(=O)C1=C(OC)c2cc3c(cc2C(c2cc(OC)c(OC)c(OC)c2)C1C(=O)OC)OCO3 (centres undefined) | > 100 µM | > 100 µM | > 100 µM | > 100 µM | > 100 µM | > 100 µM | > 100 µM | > 100 µM | – | – | – | – | – | – | – | – | –
5 | Cc1c[nH]c2c1C13CC1CN(C(=O)c1cc4cc(NC(=O)c5cc6ccccc6o5)ccc4[nH]1)C3=CC2=O (centres undefined) | < 0.001 µM | < 0.001 µM | 11.2 nM and 0.117 µg/mL | – | < 0.001 µM | – | 34.6 nM and 1.69 µg/mL | < 0.001 µM | > 1.17 ng/mL | > 1.17 ng/mL | > 1.17 ng/mL | > 1.17 ng/mL | > 1.17 ng/mL | – | – | – | –
6 | c1ccc2c(CNCCCCCCNCc3cccc4ccccc34)cccc2c1 | 20.2 µM | 25.2 µM | 4.35 µM | 20.5 µM | 3.02 µM | 3.12 µM | 13.8 µM | 22.8 µM | – | – | – | – | – | – | – | – | –
7 | Nc1nc2c(ncn2C2OC(CO)C(O)C2N)c(=O)[nH]1 (centres undefined) | > 100 µM | > 100 µM | > 100 µM | > 100 µM | > 100 µM | > 100 µM | > 100 µM | > 100 µM | – | – | – | – | – | – | – | – | –
8 | N#Cc1cccc(NC(=O)c2ccc(C(=O)O)c(C(=O)c3ccc(C(=O)O)c(C(=O)Nc4cccc(C#N)c4)c3)c2)c1 | > 100 µM | > 100 µM | > 100 µM | > 100 µM | > 100 µM | > 100 µM | > 100 µM | > 100 µM | – | – | – | – | – | – | – | – | –
9 | Cc1cccc(NC(=O)C(=O)C2C(=O)NC(=O)NC2=O)c1C | > 100 µM | > 100 µM | > 100 µM | > 100 µM | > 100 µM | > 100 µM | > 100 µM | > 100 µM | – | – | – | – | – | – | – | – | –
10 | CCOC(=O)C1N(S(=O)(=O)c2ccc(C)cc2)CCC12c1ccccc1N(C(C)=O)C2C(/C=C/C(=O)OC)=C/C(=O)OC (centres undefined) | > 100 µM | > 100 µM | > 100 µM | > 100 µM | – | > 100 µM | > 100 µM | > 100 µM | – | – | – | – | – | – | – | – | –
11 | CC(C)[C@@H]1C=C(c2ccccc2)c2ccccc2C1C(C#N)(C#N)C(C)C (some centres undefined) | > 100 µM | > 100 µM | > 100 µM | > 100 µM | > 100 µM | > 100 µM | > 100 µM | > 100 µM | – | – | – | – | – | – | – | – | –
12 | N/C(=N\NS(=O)(=O)c1ccccc1)Oc1ccc(Cl)cc1 | > 100 µM | > 100 µM | > 100 µM | > 100 µM | > 100 µM | > 100 µM | > 100 µM | > 100 µM | – | – | – | – | – | – | – | – | –
13 | C/C1=C\[C@H](C)C[C@H](C)OC(=O)C[C@H](c2ccc(O)cc2)NC(=O)[C@@H](Cc2c(Br)[nH]c3ccccc23)N(C)C(=O)[C@H](C)NC(=O)[C@@H](C)C1 | 0.837 µM and 1.56 µM | 0.428 µM and 0.26 µM | 0.705 µM and 5.15 µM | 0.532 µM and 0.535 µM | 0.251 µM and 0.0476 µM | 0.887 µM | 2.39 µM | 0.859 µM and 0.74 µM | 0.0424 µM | 0.0329 µM | 0.0304 µM | 0.0999 µM and 0.0207 µM | 0.148 µM | 0.0328 µM | 0.0982 µM | 0.0741 µM | < 0.0132 µM
14 | Cc1cc(NS(=O)(=O)c2ccc(Nc3c4ccccc4nc4c(C(=O)Nc5ccc(S(=O)(=O)N=C(N)N)cc5)cccc34)cc2)no1 | > 100 µM | > 100 µM | > 100 µM | > 100 µM | > 100 µM | > 100 µM | > 100 µM | > 100 µM | – | – | – | – | – | – | – | – | –
15 | C=CN1C(=O)OC(c2ccccc2)C1c1ccccc1 (centres undefined) | > 100 µM | > 100 µM | > 100 µM | > 100 µM | > 100 µM | > 100 µM | > 100 µM | > 100 µM | > 31.6 µM and 73.1 µM | > 100 µM | > 100 µM | > 100 µM | > 100 µM | – | > 100 µM | – | > 100 µM
16 | COc1ccc2cccc(C(=O)c3ccc(C)c4c3CCC4)c2c1 | > 100 µM | > 100 µM | > 100 µM | – | 98.2 µM | 68.3 µM | > 100 µM | > 100 µM | – | – | – | – | – | – | – | – | –
17 | Cc1ccc(S(=O)(=O)N(/N=C(\N)Oc2ccc(Cl)cc2)C(=N)Oc2ccc(Cl)cc2)cc1 | > 100 µM | > 100 µM | > 100 µM | > 100 µM | > 100 µM | > 100 µM | > 100 µM | > 100 µM | – | – | – | – | – | – | – | – | –
18 | COC(=O)/C=C/C(=O)C1C(C(=O)OC)C2(C(=O)OC)CCC1(C(=O)OC)N2 (centres undefined) | > 100 µM | > 100 µM | > 100 µM | – | > 100 µM | > 100 µM | > 100 µM | > 100 µM | – | – | – | – | – | – | – | – | –
